Reference: patent publication US10167262B2, “Herbicidal substituted 3-arylpyrazoles” (FMC CORPORATION, priority 2014, dated 2019)
Read-outs that look alike come from different tables or passages of the source.

Tests used:
Assay type in all cases: in vivo
[1] = system: barnyardgrass (Echinochloa crus-galli); experiment: Test A pre-/postemergence greenhouse herbicide test, visual injury rating 0-100; details: for pest or weed control at 500 g/ha: 500 g ai/ha; for Plant response rating (0 to 100 scale), Barnyardgrass: 1000 g ai/ha
Outline: (§1)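 Formulated in non-phytotoxic solvent with surfactant, compounds were applied pre- and postemergence simultaneously. Soil: loam–sand blend. Visual injury, 0 = no effect to 100 = complete control, ~10 days.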

corn (Zea mays) = experiment: as above; details: for plant injury at 500 g/ha: 500 g ai/ha; for Plant response rating (0 to 100 scale), Corn: 1000 g ai/ha
Outline: as §1

[2] = system: giant foxtail (Setaria faberii); experiment: as above; details: for pest or weed control at 500 g/ha: 500 g ai/ha; for Plant response rating (0 to 100 scale), Foxtail, Giant: 1000 g ai/ha
Outline: as §1

[3] = system: large (Lg) crabgrass (Digitaria sanguinalis); experiment: as above; details: for pest or weed control at 500 g/ha: 500 g ai/ha; for Plant response rating (0 to 100 scale), Crabgrass, Large: 1000 g ai/ha
Outline: as §1

[4] = system: morningglory (Ipomoea spp.); experiment: as above; details: for pest or weed control at 500 g/ha: 500 g ai/ha; for Plant response rating (0 to 100 scale), Morningglory: 1000 g ai/ha
Outline: as §1

[5] = system: pigweed (Amaranthus retroflexus); experiment: as above; details: for pest or weed control at 500 g/ha: 500 g ai/ha; for Plant response rating (0 to 100 scale), Pigweed: 1000 g ai/ha
Outline: as §1

[6] = system: velvetleaf (Abutilon theophrasti); experiment: as above; details: for pest or weed control at 500 g/ha: 500 g ai/ha; for Plant response rating (0 to 100 scale), Velvetleaf: 1000 g ai/ha
Outline: as §1

[7] = system: wheat (Triticum aestivum); experiment: as above; details: for Plant response rating (0 to 100 scale), Wheat: 1000 g ai/ha
Outline: as §1

[8] = system: Italian ryegrass (Lolium multiflorum); experiment: Test C pre-/postemergence greenhouse test, plant response rating 0-100; details: Postemergence
Outline: (§2)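 Visual rating vs controls after 13–15 d greenhouse; 0 = no effect, 100 = complete control. Pre: seeds in loam/sand, treated at planting. Post: seedlings 2–18 cm (1–4 leaf) in peat-based mix. Compounds in surfactant-containing non-phytotoxic solvent.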

[9] = system: galium (catchweed bedstraw, Galium aparine); experiment: as above; details: Postemergence
Outline: as §2

[10] = system: large (Lg) crabgrass (Digitaria sanguinalis); experiment: as above; details: Postemergence
Outline: as §2

[11] = system: ragweed (common ragweed, Ambrosia elatior); experiment: as above; details: Postemergence
Outline: as §2

[12] = system: yellow nutsedge (Cyperus esculentus); experiment: as above; details: Postemergence
Outline: as §2

CCCn1cc(C(=O)c2ccccc2)c(-c2cc(Cl)cc(Cl)c2)n1 [Compound 61, [3-(3,5-dichlorophenyl)-1-propyl-1H-pyrazol-4-yl]phenylmethanone]
80%: pest or weed control at 125 g/ha ([5]; Amaranthus retroflexus, post-emergence, 240 h, Postemergence, 125 g ai/ha, read-out: Plant response rating (0 to 100 scale), Pigweed) | pest or weed control at 125 g/ha ([6]; Abutilon theophrasti, post-emergence, 240 h, Postemergence, 125 g ai/ha, read-out: Plant response rating (0 to 100 scale), Velvetleaf)
10%: pest or weed control at 62 g/ha ([11]; Ambrosia artemisiifolia, post-emergence, 62 g ai/ha, read-out: Plant response rating (0 to 100), Ragweed)
0: Barnyardgrass plant response rating (0 = no effect, 100 = complete control) ([1]; Preemergence, 125 g ai/ha) | Corn plant response rating (0 = no effect, 100 = complete control) (corn (Zea mays); Preemergence, 125 g ai/ha) | Foxtail, Giant plant response rating (0 = no effect, 100 = complete control) ([2]; Preemergence, 125 g ai/ha) | Crabgrass, Large plant response rating (0 = no effect, 100 = complete control) ([3]; Preemergence, 125 g ai/ha) | Morningglory plant response rating (0 = no effect, 100 = complete control) ([4]; Preemergence, 125 g ai/ha) | Pigweed plant response rating (0 = no effect, 100 = complete control) ([5]; Preemergence, 125 g ai/ha) | Velvetleaf plant response rating (0 = no effect, 100 = complete control) ([6]; Preemergence, 125 g ai/ha) | Wheat plant response rating (0 = no effect, 100 = complete control) ([7]; Preemergence, 125 g ai/ha)
40%: pest or weed control at 500 g/ha ([6]; Abutilon theophrasti, pre-emergence, 240 h, Preemergence, read-out: Plant response rating (0 to 100 scale), Velvetleaf) | pest or weed control at 125 g/ha ([11]; Ambrosia artemisiifolia, post-emergence, 125 g ai/ha, read-out: Plant response rating (0 to 100), Ragweed) | pest or weed control at 250 g/ha ([11]; Ambrosia artemisiifolia, post-emergence, 250 g ai/ha, scale 0 to 100)
0%: pest or weed control at 125 g/ha ([1]; Echinochloa crus-galli, post-emergence, 240 h, Postemergence, 125 g ai/ha, read-out: Plant response rating (0 to 100 scale), Barnyardgrass) | pest or weed control at 500 g/ha ([1]; Echinochloa crus-galli, post-emergence, 240 h, Postemergence, read-out: Plant response rating (0 to 100 scale), Barnyardgrass) | pest or weed control at 500 g/ha ([1]; Echinochloa crus-galli, pre-emergence, 240 h, Preemergence, read-out: Plant response rating (0 to 100 scale), Barnyardgrass) | plant injury at 125 g/ha (corn (Zea mays); Zea mays, post-emergence, 240 h, Postemergence, 125 g ai/ha, read-out: Plant response rating (0 to 100 scale), Corn) | plant injury at 500 g/ha (corn (Zea mays); Zea mays, post-emergence, 240 h, Postemergence, read-out: Plant response rating (0 to 100 scale), Corn) | plant injury at 500 g/ha (corn (Zea mays); Zea mays, pre-emergence, 240 h, Preemergence, read-out: Plant response rating (0 to 100 scale), Corn) | pest or weed control at 125 g/ha ([2]; Setaria faberi, post-emergence, 240 h, Postemergence, 125 g ai/ha, read-out: Plant response rating (0 to 100 scale), Foxtail, Giant) | pest or weed control at 500 g/ha ([2]; Setaria faberi, post-emergence, 240 h, Postemergence, read-out: Plant response rating (0 to 100 scale), Foxtail, Giant) | pest or weed control at 500 g/ha ([2]; Setaria faberi, pre-emergence, 240 h, Preemergence, read-out: Plant response rating (0 to 100 scale), Foxtail, Giant) | pest or weed control at 125 g/ha ([3]; Digitaria sanguinalis, post-emergence, 240 h, Postemergence, 125 g ai/ha, read-out: Plant response rating (0 to 100 scale), Crabgrass, Large) | pest or weed control at 500 g/ha ([3]; Digitaria sanguinalis, post-emergence, 240 h, Postemergence, read-out: Plant response rating (0 to 100 scale), Crabgrass, Large) | pest or weed control at 500 g/ha ([3]; Digitaria sanguinalis, pre-emergence, 240 h, Preemergence, read-out: Plant response rating (0 to 100 scale), Crabgrass, Large) | pest or weed control at 125 g/ha ([4]; Ipomoea, post-emergence, 240 h, Postemergence, 125 g ai/ha, read-out: Plant response rating (0 to 100 scale), Morningglory) | pest or weed control at 500 g/ha ([4]; Ipomoea, post-emergence, 240 h, Postemergence, read-out: Plant response rating (0 to 100 scale), Morningglory) | pest or weed control at 500 g/ha ([4]; Ipomoea, pre-emergence, 240 h, Preemergence, read-out: Plant response rating (0 to 100 scale), Morningglory) | plant injury at 125 g/ha ([7]; Triticum aestivum, post-emergence, 240 h, Postemergence, 125 g ai/ha, read-out: Plant response rating (0 to 100 scale), Wheat) | plant injury at 500 g/ha ([7]; Triticum aestivum, post-emergence, 240 h, Postemergence, 500 g ai/ha, read-out: Plant response rating (0 to 100 scale), Wheat) | pest or weed control at 62 g/ha ([8]; Lolium multiflorum, post-emergence, 62 g ai/ha, read-out: Plant response rating (0 to 100), Ryegrass, Italian) | pest or weed control at 125 g/ha ([8]; Lolium multiflorum, post-emergence, 125 g ai/ha, read-out: Plant response rating (0 to 100), Ryegrass, Italian) | pest or weed control at 250 g/ha ([8]; Lolium multiflorum, post-emergence, 250 g ai/ha, scale 0 to 100) | pest or weed control at 31 g/ha ([9]; Galium, post-emergence, 31 g ai/ha, read-out: Plant response rating (0 to 100), Galium) | pest or weed control at 62 g/ha ([9]; Galium, post-emergence, 62 g ai/ha, read-out: Plant response rating (0 to 100), Galium) | pest or weed control at 125 g/ha ([9]; Galium, post-emergence, 125 g ai/ha, read-out: Plant response rating (0 to 100), Galium) | pest or weed control at 250 g/ha ([9]; Galium, post-emergence, 250 g ai/ha, scale 0 to 100) | pest or weed control at 62 g/ha ([12]; Cyperus, post-emergence, 62 g ai/ha, read-out: Plant response rating (0 to 100), Nutsedge, Yellow)
5%: pest or weed control at 31 g/ha ([10]; Digitaria sanguinalis, post-emergence, 31 g ai/ha, read-out: Plant response rating (0 to 100), Crabgrass, Large) | pest or weed control at 62 g/ha ([10]; Digitaria sanguinalis, post-emergence, 62 g ai/ha, read-out: Plant response rating (0 to 100), Crabgrass, Large) | pest or weed control at 125 g/ha ([10]; Digitaria sanguinalis, post-emergence, 125 g ai/ha, read-out: Plant response rating (0 to 100), Crabgrass, Large) | pest or weed control at 250 g/ha ([10]; Digitaria sanguinalis, post-emergence, 250 g ai/ha, scale 0 to 100) | pest or weed control at 125 g/ha ([12]; Cyperus, post-emergence, 125 g ai/ha, read-out: Plant response rating (0 to 100), Nutsedge, Yellow) | pest or weed control at 250 g/ha ([12]; Cyperus, post-emergence, 250 g ai/ha, scale 0 to 100)
90%: pest or weed control at 500 g/ha ([5]; Amaranthus retroflexus, post-emergence, 240 h, Postemergence, read-out: Plant response rating (0 to 100 scale), Pigweed) | pest or weed control at 500 g/ha ([5]; Amaranthus retroflexus, pre-emergence, 240 h, Preemergence, read-out: Plant response rating (0 to 100 scale), Pigweed) | pest or weed control at 500 g/ha ([6]; Abutilon theophrasti, post-emergence, 240 h, Postemergence, read-out: Plant response rating (0 to 100 scale), Velvetleaf)

Clc1cc(Cl)cc(-c2n[nH]cc2C(=NNc2ccccc2Cl)c2ccccc2)c1 [Compound 66]
10: Plant response rating (0 to 100), Ragweed ([11]; 62 g ai/ha)
80: Plant response rating (0 to 100 scale), Pigweed ([5]; Postemergence) | Plant response rating (0 to 100 scale), Pigweed ([5]; Preemergence) | Plant response rating (0 to 100 scale), Velvetleaf ([6]; Preemergence) | Plant response rating (0 to 100), Ragweed ([11]; 125 g ai/ha)
90: Plant response rating (0 to 100 scale), Velvetleaf ([6]; Postemergence)
95: Plant response rating, Ragweed ([11]; 500 g ai/ha, scale 0 to 100)
5: Plant response rating, Galium ([9]; 500 g ai/ha, scale 0 to 100)
0: Plant response rating (0 to 100 scale), Barnyardgrass ([1]; Postemergence) | Plant response rating (0 to 100 scale), Barnyardgrass ([1]; Preemergence) | Plant response rating (0 to 100 scale), Corn (corn (Zea mays); Postemergence) | Plant response rating (0 to 100 scale), Corn (corn (Zea mays); Preemergence) | Plant response rating (0 to 100 scale), Foxtail, Giant ([2]; Postemergence) | Plant response rating (0 to 100 scale), Foxtail, Giant ([2]; Preemergence) | Plant response rating (0 to 100 scale), Crabgrass, Large ([3]; Postemergence) | Plant response rating (0 to 100 scale), Crabgrass, Large ([3]; Preemergence) | Plant response rating (0 to 100 scale), Morningglory ([4]; Postemergence) | Plant response rating (0 to 100 scale), Morningglory ([4]; Preemergence) | Plant response rating (0 to 100 scale), Wheat ([7]; Postemergence) | Plant response rating (0 to 100 scale), Wheat ([7]; Preemergence) | Plant response rating (0 to 100), Ryegrass, Italian ([8]; 62 g ai/ha) | Plant response rating (0 to 100), Ryegrass, Italian ([8]; 125 g ai/ha) | Plant response rating, Ryegrass, Italian ([8]; 250 g ai/ha, scale 0 to 100) | Plant response rating, Ryegrass, Italian ([8]; 500 g ai/ha, scale 0 to 100) | Plant response rating (0 to 100), Galium ([9]; 62 g ai/ha) | Plant response rating (0 to 100), Galium ([9]; 125 g ai/ha) | Plant response rating, Galium ([9]; 250 g ai/ha, scale 0 to 100) | Plant response rating (0 to 100), Crabgrass, Large ([10]; 62 g ai/ha) | Plant response rating (0 to 100), Crabgrass, Large ([10]; 125 g ai/ha) | Plant response rating, Crabgrass, Large ([10]; 250 g ai/ha, scale 0 to 100) | Plant response rating, Crabgrass, Large ([10]; 500 g ai/ha, scale 0 to 100) | Plant response rating (0 to 100), Nutsedge, Yellow ([12]; 62 g ai/ha) | Plant response rating (0 to 100), Nutsedge, Yellow ([12]; 125 g ai/ha) | Plant response rating, Nutsedge, Yellow ([12]; 250 g ai/ha, scale 0 to 100) | Plant response rating, Nutsedge, Yellow ([12]; 500 g ai/ha, scale 0 to 100)
